For data set [1], the system named is blood clotting (fresh pig blood). In words: Activated clotting time (ACT) of EDTA or analogues in fresh pig blood (Example 12). Conditions: for Increase in clotting time compared to control: control 154 sec. On the procedure:
The activated clotting time (ACT) evaluation of EDTA or analogues was performed in fresh pig blood and recorded employing the Hemochron® Response device.
The ACT measurements were made in fresh pig blood. 1.0 ml of fresh pig blood was added to a test tube containing an activator (Hemochron@Celite@ ACT tubes, Lot F8FTE026 from Accriva Diagnostics, Inc.). A target amount of drug solution was then added into the test tube. The test tube was gently swirled so that the blood and drug was well-mixed. 0.1 ml of 0.3M calcium chloride was then added. The tube was gently shaken before being inserted into the Hemochron Response detector. The ACT read out was recorded and reported. The ACT of the control blood in the absence of any drug as first determined to establish a baseline. Then ACT was determined in the presence of different concentrations of EDTA or analogues as a single component.

Data set [2] in a line: pH of 1 mg/ml EDTA or analogue in water or phosphate buffer. It is filed as physicochemical. An excerpt: Based on the pH of EDTA or analogues in water and in 0.1M phosphate buffered saline as show in Table 2, EDTA disodium salt or dipotassium salt has a pH close to neutral pH in human body (6.42-6.92), whereas EDTA tetrasodium or trisodium has a very basic pH (>8.0) in human body. EDTA disodium or dipotassium is preferred in the examples.

The nature of data set [3]: In-vitro elution of coated stents in 0.01M phosphate buffered saline at 37° C. (HPLC). The class given is physicochemical. Conditions: 5 min. On the procedure:
In-Vitro Elution evaluation of the EDTA coated stent above prepared was performed in 0.01M phosphate buffered saline at 37° C. water shaking bath then tested on High Performance Liquid Chromatography (HPLC). EDTA was separated from interfering peaks by a Carbon18 reverse phase column and quantified with an external EDTA calibration standard solution prepared at similar concentrations. The percentage of EDTA eluted was calculated during each time point.
In-Vitro Elution evaluation of Tetra acetoxymethyl ester EDTA coated stent was performed in 0.01M phosphate buffered saline at 37° C. water shaking bath then tested on High Performance Liquid Chromatography (HPLC). Tetra acetoxymethyl ester EDTA was separated from interfering peaks by a Carbon18 reverse phase column and quantified with an external tetra acetoxymethyl ester EDTA calibration standard solution prepared at similar concentrations. The percentage of tetra acetoxymethyl ester EDTA eluted was calculated during each time point.
In-Vitro Elution evaluation of the EDTA complex coated stent was performed in 0.01M phosphate buffered saline at 37° C. water shaking bath then tested on High Performance Liquid Chromatography (HPLC). EDTA disodium was separated from interfering peaks by a Carbon18 reverse phase column and quantified with an external EDTA disodium calibration standard solution prepared at similar concentrations. […]

Data set [4] in a line: pH of 1 mg/ml EDTA or analogue in water or phosphate buffer. The class given is physicochemical. The settings on record: 1 mg/ml in 0.01 M pH 7.4 phosphate buffer; 21.8-22.3 ° C.; listed as EDTA tetra sodium.

Structures are written as SMILES.

On to `O=C(O)CN(CCN(CC(=O)O)CC(=O)O)CC(=O)O` [EDTA•4Na•xH2O], for which the “Clotting time (ACT)” value was 204 s in data set [1] (100 ng/mg), 275 s in data set [1] (200 ng/mg), 329 s in data set [1] (250 ng/mg) and greater than 500 s in data set [1] (300 ng/mg). In addition, the “Increase in clotting time compared to control” value in data set [1] (100 ng/mg) was 50 s; in data set [1] (200 ng/mg) it was 121 s; in data set [1] (250 ng/mg), 175 s; in data set [1] (300 ng/mg), greater than 346 s. In data set [1] (EDTA 200 ng/mg, sodium salts 300 ng/mg, listed as EDTA tetra sodium salt), the “blood coagulation compared to the blood control” value was “The same trend”. In addition, the pH was 9.61 in data set [2] (1 mg/ml in d-water, 21.8-22.0 ° C., listed as EDTA tetra sodium); greater than 8.0 in data set [2] (in water and phosphate buffered saline, listed as EDTA tetrasodium); 8.27 in data set [4]. Moreover, in data set [3], the “Cumulative percent release of EDTA” value is recorded as “about 99.8%”.

Values taken from patent US20260315653A1, “ANTICOAGULANT COMPOSITIONS COMPRISING ANTI-PLATELET AND ANTI-INFLAMMATORY DRUGS AND METHODS AND DEVICES FOR THEIR USE” (Elixir Medical Corporation, priority 2023, published 2026).
